Results taken from ChEMBL document CHEMBL1201862, “PubChem BioAssay data set” (2004).
Activity calls are given as the source filed them.

How the values were obtained:
[1] = inhibitors of firefly luciferase expression or activity, dose response, H4 neuroglioma cells, luminescence (AID 1990); assay type: functional, cell-based
[2] = luciferase reporter signal reduction – luminescence, H4-C neuroglioblastoma cells, dose response (AID 2458); assay type: functional, cell-based;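 also: H4 neuroglioblastoma cells stably carrying a luciferase reporter gene fusion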
[3] = molecular target: T1, Luciferin 4-monooxygenase (Photinus pyralis, UniProt P08659); experiment: Counter Screen for Luciferase-based Assay Positives. [Related pubchem assays: 620, 618, 411 ]
cells [4] = assay type: functional, cell-based
[5] = Luminescence Cell-Based Dose Response HTS to Identify Inhibitors of 5'UTR Stem-Loop Driven Prion Protein mRNA Translation in H4 Neuroglioblastoma Cells. [Related pubchem assays: 1827 (Project Summary), 1813 (Primary HTS)]; assay type: functional
[6] = inhibitors of SNCA 5'UTR-driven reporter translation, confirmation, H4 neuroglioma cells, luminescence (AID 1988); assay type: functional, cell-based
[7] = molecular target: T1, Luciferin 4-monooxygenase; experiment: firefly luciferase enzyme inhibitors, dose response, biochemical, luminescence (AID 1891)
[8] = Luminescence Cell-Based Dose Confirmation HTS to Identify Inhibitors of Platelet Dense Granule Release. [Related pubchem assays: 1663 (Primary HTS), 1678 (Summary of Project)]; assay type: functional
[9] = Luminescence-based counterscreen assay for KLF5 inhibitors: dose response cell-based high throughput screening assay to identify cytotoxic compounds using the IEC-6 intestinal epithelial cell line. [Related pubchem assays: 1700 (Primary screen.), 1834 (Confirmation screen.), 1858 (Summary AID.), 1905 (Counterscreen.)]; assay type: functional
HT-1080 = experiment: cytotoxicity in HT1080 fibrosarcoma cells, cell-based, fluorescence readout (AID 620); assay type: functional; conditions: Homo sapiens
[10] = molecular target: Mitogen-activated protein kinase 10 (Homo sapiens, UniProt P53779); experiment: Dose response biochemical screening assay for inhibitors of c-Jun N-Terminal Kinase 3 (JNK3). [Related pubchem assays: 746 ]
[11] = inhibitors of SNCA 5'UTR-driven translation, confirmation, luminescence, H4 neuroglioblastoma cells, dose confirmation (AID 2454); assay type: functional, cell-based;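 also: H4 neuroglioblastoma cells carrying an alpha-synuclein 5'UTR luciferase reporter; potency for inhibition of the luciferase signal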
[12] = cytotoxicity in HEK-293T cells, dose response, cytotoxicity control for TCR NF-kB inhibitor project, luminescence, T-cell screen hits (AID 489026); assay type: functional, cell-based;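 also: cells exposed to compound about 14 hours before the viability readout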
[13] = molecular target: Dual specificity tyrosine-phosphorylation-regulated kinase 1A (Rattus norvegicus, UniProt Q63470); assay type: biochemical, Homo sapiens
Streptococcus = experiment: Luminescence Microorganism-Based Dose Response Follow up to Identify Compounds Cytotoxic to Streptococcus. [Related pubchem assays: 1677 (Project Summary), 1915, 1914, 1902 (Retest at Dose), 1900 (Counter Screen), 1662 (Primary HTS)]; assay type: functional, organism-based
HeLa = experiment: Cytotoxicity counterscreen assay for transcriptional activators of heat shock protein 70 (Hsp70). [Related pubchem assays: 1203, 1252 ]; assay type: functional; conditions: Homo sapiens;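 also: cells exposed to compound for 16 hours before readout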
[14] = molecular target: DNA dC->dU-editing enzyme APOBEC-3A (Homo sapiens, UniProt P31941); experiment: Dose Response confirmation of small molecule APOBEC3A DNA Deaminase Inhibitors via a fluorescence-based single-stranded DNA deaminase assay. [Related pubchem assays (depositor defined):AID493011, AID493024]; assay type: functional
[15] = molecular target: DNA dC->dU-editing enzyme APOBEC-3G (Homo sapiens, UniProt Q9HC16); assay type: functional;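 also: Dose-response counterscreen measuring inhibition of APOBEC3G DNA deaminase activity, run while confirming APOBEC3A inhibitors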
[16] = NIH-3T3 fibroblast cytotoxicity, dose response, cytotoxicity control, cell-based, fluorescence, Alamar Blue, secondary assay (AID 2327); assay type: functional;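 also: NIH-3T3 mouse fibroblasts cultured with fluconazole at 8 µg/mL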
[17] = C. albicans growth with fluconazole, confirmation, fluorescence, retest (AID 2467); assay type: functional, cell-based
[18] = cytotoxicity in HPDE-C7 cells, cell-based, fluorescence, HTS (AID 430); assay type: functional; conditions: Homo sapiens
[19] = cytotoxicity in KRAS-transformed pancreatic duct cells, primary screen, cell-based, fluorescence, HTS (AID 431); assay type: functional; conditions: Homo sapiens;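 also: cell line used: HPDE-C7K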
[20] = growth suppression of PTEN-null colon cells, dose response, cell-based, HCT116 PTEN knockout (AID 1047); assay type: functional;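 also: HCT116 colon tumor cells with PTEN knocked out; cells exposed to compound for 60 hours before readout; potency for loss of cell viability measured by luminescence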
[21] = molecular target: T2, Sphingosine 1-phosphate receptor 4 (Homo sapiens, UniProt O95977); experiment: Late stage fluorescence dose response cell-based screening assay for antagonists of the Sphingosine 1-Phosphate Receptor 4 (S1P4). [Related pubchem assays: 1524 (Confirmation screen (S1P4 antagonists).), 1510 (Primary screen (S1P4 antagonists).), 1853 (Summary AID (S1P4 antagonists).), 1692 (Dose response screen (S1P4 antagonists).)]; assay type: functional
T2 sequence (O95977 whole entry): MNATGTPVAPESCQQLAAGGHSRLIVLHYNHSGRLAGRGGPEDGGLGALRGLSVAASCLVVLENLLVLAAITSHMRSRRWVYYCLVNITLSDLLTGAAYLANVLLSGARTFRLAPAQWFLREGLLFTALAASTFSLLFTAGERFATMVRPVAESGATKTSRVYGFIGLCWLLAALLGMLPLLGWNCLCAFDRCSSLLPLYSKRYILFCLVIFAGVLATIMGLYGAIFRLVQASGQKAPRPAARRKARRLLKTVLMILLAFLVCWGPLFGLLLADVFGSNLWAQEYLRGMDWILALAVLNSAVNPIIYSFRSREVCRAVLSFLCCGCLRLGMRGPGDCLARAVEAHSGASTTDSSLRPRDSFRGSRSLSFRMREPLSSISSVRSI

[22] = growth suppression of beta-catenin-knockout colon cells, dose response, cell-based, HCT116, human colon tumor (AID 1045); assay type: functional;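 also: HCT116 colon tumor cells with beta catenin knocked out; cells exposed to compound for 60 hours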
[23] = molecular target: T2, Sphingosine 1-phosphate receptor 4; experiment: Fluorescence dose response cell-based high throughput screening assay for antagonists of the Sphingosine 1-Phosphate Receptor 4 (S1P4). [Related pubchem assays: 1524 (Confirmation in triplicates.), 1510 (Primary screen.)]; assay type: functional
[24] = molecular target: Sphingosine 1-phosphate receptor 1 (Homo sapiens, UniProt P21453); assay type: functional;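 also: Tango beta-arrestin reporter U2OS cells stimulated with S1P near its EC80; inhibitor potency meaning antagonism of receptor activation by the natural agonist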
[25] = THP-1 cell cytotoxicity, dose response, cytotoxicity control for non-replicating M. tuberculosis project (AID 489025); assay type: functional
[26] = Vero E6 cell cytotoxicity, dose response, cytotoxicity control for non-replicating M. tuberculosis project, secondary assay (AID 492998); assay type: functional, VeroE6; conditions: Vero C1008
cells [27] = assay type: functional
[28] = molecular target: Protein-tyrosine kinase 2-beta (Homo sapiens, UniProt Q14289);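 also: potency of inhibitors of PYK2 kinase phosphorylation of poly-GT substrate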
Estrogen receptor = molecular target: T3, Estrogen receptor (Homo sapiens, UniProt P03372); experiment: potentiators of ERα–SRC-1 coactivator binding, dose response, biochemical, TR-FRET, ERα LBD (AID 737)
T3 sequence (P03372 whole entry): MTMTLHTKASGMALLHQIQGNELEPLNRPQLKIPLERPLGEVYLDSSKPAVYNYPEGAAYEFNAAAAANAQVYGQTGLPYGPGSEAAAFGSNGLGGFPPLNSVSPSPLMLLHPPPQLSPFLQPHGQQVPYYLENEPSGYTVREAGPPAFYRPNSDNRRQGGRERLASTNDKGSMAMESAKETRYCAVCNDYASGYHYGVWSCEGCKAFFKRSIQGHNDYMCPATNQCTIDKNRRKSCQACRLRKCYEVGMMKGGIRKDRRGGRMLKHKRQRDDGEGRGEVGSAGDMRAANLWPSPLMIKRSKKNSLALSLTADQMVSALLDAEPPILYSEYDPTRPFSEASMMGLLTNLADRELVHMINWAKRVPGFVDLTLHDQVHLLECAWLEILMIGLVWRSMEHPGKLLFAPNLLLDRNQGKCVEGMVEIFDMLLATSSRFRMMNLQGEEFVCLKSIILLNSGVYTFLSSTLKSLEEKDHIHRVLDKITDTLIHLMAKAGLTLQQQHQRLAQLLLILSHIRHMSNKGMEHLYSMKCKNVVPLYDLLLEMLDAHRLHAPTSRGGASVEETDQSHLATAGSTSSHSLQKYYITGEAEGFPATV

T1 sequence (P08659 whole entry): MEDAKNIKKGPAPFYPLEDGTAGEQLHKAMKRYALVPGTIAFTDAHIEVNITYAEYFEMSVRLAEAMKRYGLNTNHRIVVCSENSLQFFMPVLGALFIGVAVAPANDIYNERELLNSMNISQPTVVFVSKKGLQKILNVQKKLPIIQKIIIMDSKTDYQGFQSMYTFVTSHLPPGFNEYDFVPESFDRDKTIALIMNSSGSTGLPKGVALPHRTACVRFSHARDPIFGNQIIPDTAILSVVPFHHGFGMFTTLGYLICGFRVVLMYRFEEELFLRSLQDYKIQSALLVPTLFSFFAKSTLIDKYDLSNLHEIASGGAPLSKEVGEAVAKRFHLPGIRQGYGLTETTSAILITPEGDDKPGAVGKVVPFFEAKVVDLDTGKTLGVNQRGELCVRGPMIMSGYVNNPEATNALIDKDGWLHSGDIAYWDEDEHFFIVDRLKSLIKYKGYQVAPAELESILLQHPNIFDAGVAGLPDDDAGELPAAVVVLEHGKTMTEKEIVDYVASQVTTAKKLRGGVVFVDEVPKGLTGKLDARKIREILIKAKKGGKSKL
Chain of Protein-tyrosine kinase 2-beta (Q14289 whole entry, the tested form may be a part): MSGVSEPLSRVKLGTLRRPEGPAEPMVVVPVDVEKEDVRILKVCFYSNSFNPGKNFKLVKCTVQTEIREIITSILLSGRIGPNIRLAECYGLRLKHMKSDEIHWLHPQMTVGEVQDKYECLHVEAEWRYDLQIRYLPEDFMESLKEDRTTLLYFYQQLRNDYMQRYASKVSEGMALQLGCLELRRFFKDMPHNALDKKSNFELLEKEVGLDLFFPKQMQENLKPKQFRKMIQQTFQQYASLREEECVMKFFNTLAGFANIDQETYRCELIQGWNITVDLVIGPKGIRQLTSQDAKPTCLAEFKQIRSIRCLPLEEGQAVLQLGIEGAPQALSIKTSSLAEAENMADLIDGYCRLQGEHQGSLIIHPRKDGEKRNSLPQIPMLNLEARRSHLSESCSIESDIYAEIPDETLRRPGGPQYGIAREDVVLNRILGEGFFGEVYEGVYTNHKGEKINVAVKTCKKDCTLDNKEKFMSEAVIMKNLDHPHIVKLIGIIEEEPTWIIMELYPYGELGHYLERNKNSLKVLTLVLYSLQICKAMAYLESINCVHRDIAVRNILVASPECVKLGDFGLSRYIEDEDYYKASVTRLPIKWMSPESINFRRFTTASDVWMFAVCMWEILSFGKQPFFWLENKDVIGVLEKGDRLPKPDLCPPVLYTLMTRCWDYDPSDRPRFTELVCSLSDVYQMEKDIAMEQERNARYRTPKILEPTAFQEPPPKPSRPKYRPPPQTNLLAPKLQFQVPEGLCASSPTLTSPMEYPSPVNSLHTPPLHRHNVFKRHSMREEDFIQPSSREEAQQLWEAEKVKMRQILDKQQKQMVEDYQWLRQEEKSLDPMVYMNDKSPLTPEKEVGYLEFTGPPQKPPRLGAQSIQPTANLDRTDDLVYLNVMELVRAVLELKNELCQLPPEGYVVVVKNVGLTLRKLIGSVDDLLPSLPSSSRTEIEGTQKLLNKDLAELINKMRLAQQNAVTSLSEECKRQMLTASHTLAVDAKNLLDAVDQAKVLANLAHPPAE
Chain of Sphingosine 1-phosphate receptor 1 (P21453 whole entry): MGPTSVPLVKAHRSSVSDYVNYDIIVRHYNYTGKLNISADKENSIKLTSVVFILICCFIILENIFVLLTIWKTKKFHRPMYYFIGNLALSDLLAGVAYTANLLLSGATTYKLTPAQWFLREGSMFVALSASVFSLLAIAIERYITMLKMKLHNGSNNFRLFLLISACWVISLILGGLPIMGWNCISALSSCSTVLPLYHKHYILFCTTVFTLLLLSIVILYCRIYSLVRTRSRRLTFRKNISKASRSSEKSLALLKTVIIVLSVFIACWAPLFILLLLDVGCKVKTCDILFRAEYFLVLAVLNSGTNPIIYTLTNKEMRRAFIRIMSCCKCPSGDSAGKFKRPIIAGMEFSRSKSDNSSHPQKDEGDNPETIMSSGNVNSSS
Chain of Mitogen-activated protein kinase 10 (P53779 whole entry): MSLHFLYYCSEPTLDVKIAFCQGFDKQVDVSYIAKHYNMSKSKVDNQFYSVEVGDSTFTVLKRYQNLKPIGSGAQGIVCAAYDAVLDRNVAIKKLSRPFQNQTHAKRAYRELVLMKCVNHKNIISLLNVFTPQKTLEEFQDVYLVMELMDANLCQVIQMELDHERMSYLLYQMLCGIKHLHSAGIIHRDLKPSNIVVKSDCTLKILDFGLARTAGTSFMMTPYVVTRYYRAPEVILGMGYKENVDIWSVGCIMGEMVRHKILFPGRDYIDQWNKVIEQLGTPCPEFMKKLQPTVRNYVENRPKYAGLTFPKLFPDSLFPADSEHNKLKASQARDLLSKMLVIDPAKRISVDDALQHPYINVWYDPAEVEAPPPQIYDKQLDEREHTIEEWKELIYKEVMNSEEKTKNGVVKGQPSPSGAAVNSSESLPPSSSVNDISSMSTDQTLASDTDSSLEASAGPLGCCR
Chain of DNA dC->dU-editing enzyme APOBEC-3A (P31941 whole entry): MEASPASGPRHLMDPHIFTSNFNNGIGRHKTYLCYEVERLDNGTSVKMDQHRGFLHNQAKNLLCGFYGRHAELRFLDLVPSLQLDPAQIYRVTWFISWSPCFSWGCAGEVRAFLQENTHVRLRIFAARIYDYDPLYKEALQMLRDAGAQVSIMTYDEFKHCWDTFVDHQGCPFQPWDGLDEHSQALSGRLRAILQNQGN
Chain of DNA dC->dU-editing enzyme APOBEC-3G (Q9HC16 whole entry): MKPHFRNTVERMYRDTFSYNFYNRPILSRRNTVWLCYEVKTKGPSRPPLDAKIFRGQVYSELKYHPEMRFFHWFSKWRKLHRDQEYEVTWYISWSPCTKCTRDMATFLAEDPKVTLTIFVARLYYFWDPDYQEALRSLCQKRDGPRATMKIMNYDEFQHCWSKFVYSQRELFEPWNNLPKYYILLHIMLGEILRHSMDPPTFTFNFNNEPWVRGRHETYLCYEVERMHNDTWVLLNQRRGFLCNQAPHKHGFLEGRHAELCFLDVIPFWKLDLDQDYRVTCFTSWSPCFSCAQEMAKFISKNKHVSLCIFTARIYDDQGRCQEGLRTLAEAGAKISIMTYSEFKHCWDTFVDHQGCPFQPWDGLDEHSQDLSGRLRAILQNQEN

In the case of `CCN1C=CC(=C2C(=O)c3ccccc3C2=O)C=C1`, the EC50 [1] is reported as < 0.1 µM (active), the EC50 [2] is reported as 0.324 µM (active) and the EC50 [3] is reported as 10.1 µM (active). The EC50 (cells [4]) was 0.317 µM (active), the EC50 [5] was < 0.1 µM (active) and the EC50 [6] was < 0.1 µM (active). The EC50 [7] was 1.85 µM (active), the EC50 [8] was 6.3 µM (active) and the IC50 [9] was 15 µM (not active). For the same compound, the EC50 (HT-1080) was > 50 µM (not active), the IC50 [10] was 43.5 µM (not active) and the EC50 [11] was 0.247 µM (active). The IC50 [12] was > 80 µM (inactive) and the AC50 [13] was 13.6 µM (active).
For `O=C(CSc1cccs1)N1c2ccccc2Sc2ccccc21`, the EC50 (Streptococcus) was > 500 µM (not active).
With `COc1ccc(N=Nc2[nH]c3ccc(C)cc3c2O)cc1` the CC50 (HeLa) was > 33 µM (not active), the IC50 [14] was 8.35 µM (active) and the IC50 [15] was 7.98 µM (active).
In the case of `CCCS(=O)(=O)c1nnnn1-c1cccc(OC)c1`, the EC50 [16] is reported as 5.1 µM (inconclusive), the EC50 [17] is reported as 2.49 µM (active) and the EC50 [18] is reported as 6.57 µM (active). The EC50 [19] was 6.25 µM (active), the EC50 [20] was 7.57 µM (active) and the IC50 [21] was 4.51 µM (not active). The EC50 [22] was 6.66 µM (active), the IC50 [23] was 0.951 µM (active) and the IC50 [24] was 20.1 µM (not active). For the same compound, the CC50 [25] was 17.8 µM (active), the CC50 [26] was 11.7 µM (active) and the IC50 (cells [27]) was 5.35 µM (active).
In the case of `O=c1cc(-c2ccco2)oc2c1ccc1ccccc12`, the IC50 [28] is reported as > 69.5 µM (not active) and the EC50 (Estrogen receptor) is reported as 12.4 µM (active).
